Experimental data as given in patent publication US9290507B2, “B-RAF kinase inhibitors” (Boehringer Ingelheim International GmbH, priority 2010, dated 2016).

Molecular target: B-Raf (V600E)-kinase (Homo sapiens (Human), UniProt P15056, V600E)
Assay: Kinase test B-Raf (V600E)
Type: biochemical
Conditions: 1 h preincubation, 250 μM ATP
Method: In a dilution series 10 μL/well of test substance solution are placed in a multiwell plate. The dilution series is selected so that generally a range of concentrations of 2 μM to 0.119 nM or 0.017 nM is covered. If necessary the initial concentration of 2 μM is changed to 50 μM, 10 μM or 0.4 μM or 0.2857 μM and further dilution is carried out accordingly. The final concentration of DMSO is 5%. 10 μL/well of the B-Raf (V600E)-kinase solution are pipetted in (containing 0.5 ng B-Raf (V600E)-kinase (e.g. from Upstate) in 20 mM Tris-HCl pH 7.5, 0.1 mM EDTA, 0.1 mM EGTA, 0.286 mM sodium orthovanadate, 10% glycerol, 1 mg/mL bovine serum albumin, 1 mM dithiothreitol) and the mixture is incubated for 1 h at RT under with shaking. The kinase reaction is started by the addition of 20 μL/well ATP solution [final concentration: 250 μM ATP, 30 mM Tris-HCl pH 7.5, 0.02% Brij, 0.2 mM sodium orthovanadate, 10 mM magnesium acetate, 0.1 mM EGTA, phosphatase cocktail (Sigma, #P2850, dilution recommended by the manufacturer)] and 10 μL/well MEK1 solution [containing 50 ng biotinylated MEK1 (prepared from purified MEK1 according to standard procedure, e.g. with EZ-Link Sulpho-NHS-LC-Biotin reagent, Pierce, #21335)] and carried out for 60 min at RT with constant shaking. The reaction is stopped by the addition of 12 μL/well of a 100 mM EDTA solution and incubation is continued for a further 5 min. 55 μL/well of the reaction solution are transferred into a streptavidin-coated plate (e.g. Streptawell HighBond, Roche, #11989685001) and shaken gently for 1 h at RT, in order to bind biotinylated MEK1 to the plate. After elimination of the liquid the plate is washed five times with 200 μL/well of 1×PBS and 100 μL/well solution of primary antibody plus europium-labelled secondary antibody [Anti Phospho-MEK (Ser217/221), Cell Signaling, #9121 and Eu-N1 labelled goat-anti-rabbit antibody, Perkin Elmer, #AD0105] is added, the primary antibody is diluted 1:2000 and the secondary antibody is diluted to 0.4-0.5 μg/mL in Delfia Assay Buffer (Perkin Elmer, #1244-111). After 1 h shaking at RT the solution is poured away and washed five times with 200 μL/well Delfia Wash Buffer (Perkin Elmer, #4010-0010/#1244-114). After the addition of 200 μL/well Enhancement Solution (Perkin Elmer, #4001-0010/#1244-105) the mixture is shaken for 10 min at RT and then measured in a Wallac Victor using the program “Delfia Time Resolved Fluorescence (Europium)”. IC50 values are obtained from these dosage-activity curves using a software program (GraphPadPrizm).

B-Raf (V600E)-kinase, sequence (P15056 whole entry V600E): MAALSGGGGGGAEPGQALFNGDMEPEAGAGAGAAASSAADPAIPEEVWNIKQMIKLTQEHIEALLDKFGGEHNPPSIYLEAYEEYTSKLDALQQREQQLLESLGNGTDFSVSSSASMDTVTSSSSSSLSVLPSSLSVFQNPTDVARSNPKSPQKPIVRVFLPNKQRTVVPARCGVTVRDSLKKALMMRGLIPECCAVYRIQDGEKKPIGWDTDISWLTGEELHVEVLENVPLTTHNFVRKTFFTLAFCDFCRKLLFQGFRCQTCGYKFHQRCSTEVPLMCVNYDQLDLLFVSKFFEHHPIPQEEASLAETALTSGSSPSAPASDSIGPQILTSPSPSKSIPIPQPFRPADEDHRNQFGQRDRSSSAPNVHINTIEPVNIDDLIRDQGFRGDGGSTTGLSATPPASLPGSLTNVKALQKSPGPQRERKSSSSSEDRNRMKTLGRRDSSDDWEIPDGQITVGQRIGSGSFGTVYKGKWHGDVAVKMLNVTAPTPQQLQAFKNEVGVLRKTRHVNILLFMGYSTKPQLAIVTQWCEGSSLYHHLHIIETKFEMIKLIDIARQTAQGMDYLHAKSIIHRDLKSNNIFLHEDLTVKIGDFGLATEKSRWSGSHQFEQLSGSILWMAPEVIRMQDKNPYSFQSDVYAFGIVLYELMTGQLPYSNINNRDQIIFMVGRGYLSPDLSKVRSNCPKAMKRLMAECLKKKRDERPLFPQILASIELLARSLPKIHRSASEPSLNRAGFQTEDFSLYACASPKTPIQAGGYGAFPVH

SMILES | IC50 [nM]
Cc1ccc(NC(=O)c2ccc(C(C)(C)C)o2)cc1-n1cc(-c2cncc(N3CCN(CC(C)C)CC3)c2)nn1 [II-19] | 5
Cc1ccc(C(=O)Nc2cc(C(C)(C)C)on2)cc1-n1cc(-c2cncc(N3CCCN(C(C)C)CC3)c2)nn1 [I-52] | 18
Cc1ccc(C(=O)Nc2cc(C(F)(F)F)ccn2)cc1-n1cc(-c2cncc(N(C)C3CCN(C)CC3)c2)nn1 [I-74] | 12
Cc1ccc(NC(=O)c2cc(C(C)(C)C)oc2C)cc1-n1cc(-c2cncc(N3CCOCC3)c2)nn1 [II-12] | 15
CCN1CCN(c2cncc(-c3cn(-c4cc(NC(=O)c5ccc(C(C)(C)C)o5)ccc4C)nn3)c2)CC1 [II-14] | 3
Cc1ccc(NC(=O)c2ccc(C(C)(C)C)s2)cc1-n1cc(-c2cncc(N3CCN(C(C)(C)C)CC3)c2)nn1 [II-29] | 10
Cc1ccc(C(=O)Nc2cc(C(C)(C)C)on2)cc1-n1cc(-c2cncc(N3CCN(C4CCCC4)CC3)c2)nn1 [I-5] | 14
Cc1ccc(NC(=O)c2ccc(C(C)(C)C)s2)cc1-n1cc(-c2cncc(N3CCOCC3)c2)nn1 [II-11] | 10
Cc1ccc(C(=O)Nc2cc(C(F)(F)F)ccn2)cc1-n1cc(-c2cncc(N(C)C3CCOCC3)c2)nn1 [I-69] | 30
Cc1ccc(C(=O)Nc2cc(C(C)(C)C)on2)cc1-n1cc(-c2cncc(N3CCN(C(C)C)CC3)c2)nn1 [I-44] | 11
Cc1ccc(NC(=O)c2cc(CNC3CCN(C)CC3)c(C(C)(C)C)o2)cc1-n1cc(-c2cncc(N3CCOCC3)c2)nn1 [II-41] | 14
